One data set has as its target human Nav1.8 (Homo sapiens (Human), UniProt Q9Y5Y9). Put plainly: E-VIPR optical membrane potential assay with electrical stimulation. The class given is cell-based. To be noted: HEK cells expressing human Nav1.8. From the text:
E-VIPR Optical Membrane Potential Assay Method with Electrical Stimulation
Sodium channels are voltage-dependent proteins that can be activated by inducing membrane voltage changes by applying electric fields. The electrical stimulation instrument and methods of use are described in Ion Channel Assay Methods PCT/US01/21652, herein incorporated by reference and are referred to as E-VIPR. The instrument comprises a microtiter plate handler, an optical system for exciting the coumarin dye while simultaneously recording the coumarin and oxonol emissions, a waveform generator, a current- or voltage-controlled amplifier, and a device for inserting electrodes in well. Under integrated computer control, this instrument passes user-programmed electrical stimulus protocols to cells within the wells of the microtiter plate.
24 hours before the assay on E-VIPR, HEK cells expressing human Nav1.8 were seeded in 384-well poly-lysine coated plates at 15,000-20,000 cells per well. HEK cells were grown in media (exact composition is specific to each cell type and NaV subtype) supplemented with 10% FBS (Fetal Bovine Serum, qualified; GibcoBRL #16140-071) and 1% Pen-Strep (Penicillin-Streptomycin; GibcoBRL #15140-122). Cells were grown in vented cap flasks, in 90% humidity and 5% CO2.
• 100 mg/mL Pluronic F-127 (Sigma #P2443), in dry DMSO • Compound Plates: 384-well round bottom plate, e.g. Corning 384-well Polypropylene Round Bottom #3656 • Cell Plates: 384-well tissue culture treated plate, e.g. Greiner #781091-1B • 10 mM DiSBAC6(3) (Aurora #00-100-010) in dry DMSO • 10 mM CC2-DMPE (Aurora #00-100-008) in dry DMSO • 200 mM ABSC1 in H20
Bath1 buffer: Glucose 10 mM (1.8 g/L), Magnesium Chloride (Anhydrous), 1 mM (0.095 g/L), Calcium Chloride, 2 mM (0.222 g/L), HEPES 10 mM (2.38 g/L), Potassium Chloride, 4.5 mM (0.335 g/L), Sodium Chloride 160 mM (9.35 g/L).
Hexyl Dye Solution: Bath1 Buffer+0.5% β-cyclodextrin (make this prior to use, Sigma #C4767), 8 μM CC2-DMPE+2.5 μM DiSBAC6(3). To make the solution Added volume of 10% Pluronic F127 stock equal to volumes of CC2-DMPE+DiSBAC6(3). The order of preparation was first mix Pluronic and CC2-DMPE, then added DiSBAC6(3) while vortexing, then added Bath1+β-Cyclodextrin.
1) Pre-spotted compounds (in neat DMSO) into compound plates. Vehicle control (neat DMSO), the positive control (20 mM DMSO stock tetracaine, 125 μM final in assay) and test compounds were added to each well at 160× desired final concentration in neat DMSO. Final compound plate volume was 80 μL (80-fold intermediate dilution from 1 μL DMSO spot; 160-fold final dilution after transfer to cell plate). Final DMSO concentration for all wells in assay was 0.625%.
2) Prepared Hexyl Dye Solution.
3) Prepared cell plates. On the day of the assay, medium was aspirated and cells were washed three times with 100 μL of Bath1 Solution, maintaining 25 μL residual volume in each well.
4) Dispensed 25 μL per well of Hexyl Dye Solution into cell plates. Incubated for 20-35 minutes at room temp or ambient conditions.
5) Dispensed 80 μL per well of Bath1 into compound plates. Acid Yellow-17 (1 mM) was added and Potassium Chloride was altered from 4.5 to 20 mM depending on the NaV subtype and assay sensitivity.
6) Washed cell plates three times with 100 μL per well of Bath1, leaving 25 μL of residual volume. Then transferred 25 uL per well from Compound Plates to Cell Plates. Incubated for 20-35 minutes at room temp/ambient condition.
7) Read Plate on E-VIPR. Used the current-controlled amplifier to deliver stimulation wave pulses for 10 seconds and a scan rate of 200 Hz. A pre-stimulus recording was performed for 0.5 seconds to obtain the un-stimulated intensities baseline. The stimulatory waveform was followed by 0.5 seconds of post-stimulation recording to examine the relaxation to the resting state.
Data was analyzed and reported as normalized ratios of emission intensities measured in the 460 nm and 580 nm channels. […]

A short description of data set [1]: Human liver microsome assay. It counts as in vitro ADME. Conditions: 1 uM substrate, 0.5 mg/mL liver microsome, 2 mM NADPH, 37° C., referenced against time zero control. As for the experimental part:
Human Liver Microsome Assay Protocol
Liver microsomal stability data were generated as follows. Substrates were incubated at 37° C. and shaken for 30 minutes in a phosphate buffered solution with human liver microsomes and the cofactor NADPH. A time zero control was similarly prepared, however with NADPH excluded. The final incubation concentrations were 1 uM substrate (0.2% DMSO), 0.5 mg/mL liver microsome, 2 mM NADPH, and 0.1 M phosphate. Reactions were quenched and proteins precipitated with the addition of 2 volume equivalents of ice cold acetonitrile containing an internal standard. Following a centrifugation step, aliquots from the quenched incubations were further diluted with 4 volume equivalents of a 50% aqueous methanol solution and then subjected to LC/MS/MS analysis for quantitation of parent substrate. Microsome stability values were calculated as the percent of substrate remaining after 30 minutes referenced against the time zero control.

human Nav1.8, sequence (Q9Y5Y9 whole entry): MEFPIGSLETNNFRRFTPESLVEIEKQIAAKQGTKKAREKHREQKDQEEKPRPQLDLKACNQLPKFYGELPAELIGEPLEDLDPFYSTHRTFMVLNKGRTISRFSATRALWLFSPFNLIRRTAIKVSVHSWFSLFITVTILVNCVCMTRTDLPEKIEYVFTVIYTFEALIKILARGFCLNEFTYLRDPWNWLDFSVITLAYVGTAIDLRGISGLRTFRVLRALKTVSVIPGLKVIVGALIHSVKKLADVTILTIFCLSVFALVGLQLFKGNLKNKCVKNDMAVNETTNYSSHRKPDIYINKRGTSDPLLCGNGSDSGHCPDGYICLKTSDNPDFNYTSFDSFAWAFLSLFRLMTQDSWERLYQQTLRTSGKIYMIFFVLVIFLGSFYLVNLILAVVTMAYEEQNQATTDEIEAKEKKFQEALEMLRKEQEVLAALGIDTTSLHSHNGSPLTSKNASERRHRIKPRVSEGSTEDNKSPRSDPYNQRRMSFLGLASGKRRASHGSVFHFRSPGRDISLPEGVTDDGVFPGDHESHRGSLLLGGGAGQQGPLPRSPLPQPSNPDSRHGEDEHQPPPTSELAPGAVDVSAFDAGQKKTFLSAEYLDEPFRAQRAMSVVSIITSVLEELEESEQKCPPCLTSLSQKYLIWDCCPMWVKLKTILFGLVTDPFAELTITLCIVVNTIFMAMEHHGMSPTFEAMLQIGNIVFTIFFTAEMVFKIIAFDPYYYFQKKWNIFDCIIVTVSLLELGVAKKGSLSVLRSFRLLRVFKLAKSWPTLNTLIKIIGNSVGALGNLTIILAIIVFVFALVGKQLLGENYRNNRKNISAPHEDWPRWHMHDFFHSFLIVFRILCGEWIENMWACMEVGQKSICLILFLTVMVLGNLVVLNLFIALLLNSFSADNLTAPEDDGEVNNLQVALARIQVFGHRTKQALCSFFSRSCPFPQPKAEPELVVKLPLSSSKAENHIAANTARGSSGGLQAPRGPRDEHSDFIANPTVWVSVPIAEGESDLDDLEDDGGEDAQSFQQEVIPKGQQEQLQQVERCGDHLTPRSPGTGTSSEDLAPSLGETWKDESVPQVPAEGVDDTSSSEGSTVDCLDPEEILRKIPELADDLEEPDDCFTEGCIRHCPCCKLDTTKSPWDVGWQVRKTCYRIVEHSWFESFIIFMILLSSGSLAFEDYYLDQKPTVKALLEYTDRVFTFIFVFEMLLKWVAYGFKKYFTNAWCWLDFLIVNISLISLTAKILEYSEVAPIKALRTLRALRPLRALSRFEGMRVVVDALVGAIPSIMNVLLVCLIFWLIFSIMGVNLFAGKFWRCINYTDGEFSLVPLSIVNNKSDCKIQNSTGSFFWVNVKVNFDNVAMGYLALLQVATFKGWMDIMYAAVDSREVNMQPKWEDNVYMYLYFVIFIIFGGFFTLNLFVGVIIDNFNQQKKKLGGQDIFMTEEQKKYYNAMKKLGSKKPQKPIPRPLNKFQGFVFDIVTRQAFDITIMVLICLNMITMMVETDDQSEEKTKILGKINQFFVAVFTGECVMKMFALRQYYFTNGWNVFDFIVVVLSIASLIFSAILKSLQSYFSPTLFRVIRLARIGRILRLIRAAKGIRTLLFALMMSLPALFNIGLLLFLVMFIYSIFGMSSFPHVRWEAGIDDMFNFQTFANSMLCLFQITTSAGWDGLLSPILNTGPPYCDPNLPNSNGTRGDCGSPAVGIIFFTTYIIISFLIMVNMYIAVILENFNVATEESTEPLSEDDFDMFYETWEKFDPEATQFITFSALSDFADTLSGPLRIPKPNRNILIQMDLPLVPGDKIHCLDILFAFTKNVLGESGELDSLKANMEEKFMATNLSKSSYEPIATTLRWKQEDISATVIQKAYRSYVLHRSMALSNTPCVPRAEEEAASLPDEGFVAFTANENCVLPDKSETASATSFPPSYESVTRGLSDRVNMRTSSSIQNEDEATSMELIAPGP

Regarding `Cc1cc(F)ccc1Oc1ccc(Cl)cc1C(=O)Nc1cccc(S(N)(=O)=O)c1` [Compound 20, 5-chloro-2-(4-fluoro-2-methylphenoxy)-N-(3-sulfamoylphenyl)benzamide], inhibition on human Nav1.8 was half-maximal at 4 nM (IC50). For the same molecule, in data set [1], the “HLM: percent unchanged after 30 min” value is recorded as 96%.
In the same order, the values of `Cc1cc(F)ccc1Oc1ccc(F)cc1C(=O)Nc1cccc(S(N)(=O)=O)c1` [Compound 21, 5-fluoro-2-(4-fluoro-2-methylphenoxy)-N-(3-sulfamoylphenyl)benzamide] are 23 nM and 96%.
On the same counts, the results for `COc1ccc(Oc2ccc(C(F)(F)F)cc2C(=O)Nc2cccc(S(N)(=O)=O)c2)cc1` [Compound 22, 2-(4-methoxyphenoxy)-N-(3-sulfamoylphenyl)-5-(trifluoromethyl)benzamide] are 28 nM and 88%.
On the same counts, the results for `CCOc1ccc(Oc2ccc(C(F)(F)F)cc2C(=O)Nc2cccc(S(N)(=O)=O)c2)cc1` [Compound 23, 2-(4-ethoxyphenoxy)-N-(3-sulfamoylphenyl)-5-(trifluoromethyl)benzamide] are 14 nM and 75%.
The molecule `NS(=O)(=O)c1cccc(NC(=O)c2cc(C(F)(F)F)ccc2Oc2ccc(Cl)cc2)c1` [Compound 24, 2-(4-chlorophenoxy)-N-(3-sulfamoylphenyl)-5-(trifluoromethyl)benzamide] displayed an IC50 against human Nav1.8 of 30 nM. Also, in data set [1], the “HLM: percent unchanged after 30 min” value is listed as 102%.
In the same order, the values of `Cc1cc(F)ccc1Oc1ccc(C(F)(F)F)cc1C(=O)Nc1cccc(S(N)(=O)=O)c1` [Compound 25, 2-(4-fluoro-2-methylphenoxy)-N-(3-sulfamoylphenyl)-5-(trifluoromethyl)benzamide] are 4 nM and 94%.
Consider `NS(=O)(=O)c1cccc(NC(=O)c2cc(C(F)(F)F)ccc2Oc2ccc(F)cc2Cl)c1` [Compound 26, 2-(2-chloro-4-fluorophenoxy)-N-(3-sulfamoylphenyl)-5-(trifluoromethyl)benzamide], for which the IC50 at human Nav1.8 is 4 nM. The “HLM: percent unchanged after 30 min” value in data set [1] was determined as 119%.
In the same order, the values of `COc1cc(F)ccc1Oc1ccc(C(F)(F)F)cc1C(=O)Nc1cccc(S(N)(=O)=O)c1` [Compound 27, 2-(4-fluoro-2-methoxyphenoxy)-N-(3-sulfamoylphenyl)-5-(trifluoromethyl)benzamide] are 6 nM and 101%.
With `COc1ccc(Oc2ccc(C(F)(F)F)cc2C(=O)Nc2cccc(S(N)(=O)=O)c2)cc1F` [Compound 28, 2-(3-fluoro-4-methoxyphenoxy)-N-(3-sulfamoylphenyl)-5-(trifluoromethyl)benzamide], at human Nav1.8, the IC50 was 16 nM. Further, in data set [1], the “HLM: percent unchanged after 30 min” value turned out to be 92%.
On the same counts, the results for `COc1c(F)cccc1Oc1ccc(C(F)(F)F)cc1C(=O)Nc1cccc(S(N)(=O)=O)c1` [Compound 29, 2-(3-fluoro-2-methoxyphenoxy)-N-(3-sulfamoylphenyl)-5-(trifluoromethyl)benzamide] are 5 nM and 100%.
On the same counts, the results for `Cc1cc(Cl)ccc1Oc1ccc(C(F)(F)F)cc1C(=O)Nc1cccc(S(N)(=O)=O)c1` [Compound 30, 2-(4-chloro-2-methylphenoxy)-N-(3-sulfamoylphenyl)-5-(trifluoromethyl)benzamide] are 9 nM and 103%.
On the same counts, the results for `COc1ccc(Oc2ccc(C(F)(F)F)cc2C(=O)Nc2cccc(S(N)(=O)=O)c2)c(Cl)c1` [Compound 31, 2-(2-chloro-4-methoxyphenoxy)-N-(3-sulfamoylphenyl)-5-(trifluoromethyl)benzamide] are 6 nM and 82%.
`Cc1ccccc1Oc1ccc(C(F)(F)F)cc1C(=O)Nc1cccc(S(N)(=O)=O)c1` [Compound 32, N-(3-sulfamoylphenyl)-2-(o-tolyloxy)-5-(trifluoromethyl)benzamide] gave an IC50 against human Nav1.8 of 8 nM. Besides, the “HLM: percent unchanged after 30 min” value in data set [1] is on record as 76%.
`NS(=O)(=O)c1cccc(NC(=O)c2c(Oc3ccc(F)cc3Cl)cccc2C(F)(F)F)c1` [Compound 33, 2-(2-chloro-4-fluorophenoxy)-N-(3-sulfamoylphenyl)-6-(trifluoromethyl)benzamide] showed an IC50 against human Nav1.8 of 5 nM. Besides, the “HLM: percent unchanged after 30 min” value in data set [1] was determined as 102%.
For the molecule `COc1ccccc1Oc1ccc(C(F)(F)F)cc1C(=O)Nc1cccc(S(N)(=O)=O)c1` [Compound 34, 2-(2-methoxyphenoxy)-N-(3-sulfamoylphenyl)-5-(trifluoromethyl)benzamide], on human Nav1.8, half-maximal inhibition (IC50) was put at 14 nM. In addition, the “HLM: percent unchanged after 30 min” value in data set [1] was 96%.
For the molecule `COc1cc(Cl)ccc1Oc1ccc(C(F)(F)F)cc1C(=O)Nc1cccc(S(N)(=O)=O)c1` [Compound 35, 2-(4-chloro-2-methoxyphenoxy)-N-(3-sulfamoylphenyl)-5-(trifluoromethyl)benzamide], on human Nav1.8, half-maximal inhibition (IC50) was put at 5 nM. The “HLM: percent unchanged after 30 min” value in data set [1] is 82%.
In the same order, the values of `COc1ccc(Oc2ccc(C(F)(F)F)cc2C(=O)Nc2cccc(S(N)(=O)=O)c2)c(OC)c1` [Compound 36, 2-(2,4-dimethoxyphenoxy)-N-(3-sulfamoylphenyl)-5-(trifluoromethyl)benzamide] are 4 nM and 66%.
On the same counts, the results for `CC(C)Oc1ccc(Oc2ccc(C(F)(F)F)cc2C(=O)Nc2cccc(S(N)(=O)=O)c2)cc1` [Compound 37, 2-(4-isopropoxyphenoxy)-N-(3-sulfamoylphenyl)-5-(trifluoromethyl)benzamide] are 6 nM and 76%.
In the same order, the values of `Cc1cccc(Oc2ccc(F)cc2Cl)c1C(=O)Nc1cccc(S(N)(=O)=O)c1` [Compound 38, 2-(2-chloro-4-fluorophenoxy)-6-methyl-N-(3-sulfamoylphenyl)benzamide] are 14 nM and 105%.
Molecule `NS(=O)(=O)c1cccc(NC(=O)c2cc(C(F)(F)F)ccc2Oc2ccc(OC(F)(F)F)cc2)c1` [Compound 39, N-(3-sulfamoylphenyl)-2-(4-(trifluoromethoxy)phenoxy)-5-(trifluoromethyl)benzamide] returned a half-maximal inhibitory concentration (IC50) at human Nav1.8 of 10 nM. The “HLM: percent unchanged after 30 min” value in data set [1] turned out to be 104%.
Regarding `NS(=O)(=O)c1cccc(NC(=O)c2cc(C(F)F)ccc2Oc2ccc(F)cc2Cl)c1` [Compound 40, 2-(2-chloro-4-fluorophenoxy)-5-(difluoromethyl)-N-(3-sulfamoylphenyl)benzamide], the midpoint of inhibition on human Nav1.8, the IC50, lay at 7 nM. The “HLM: percent unchanged after 30 min” value in data set [1] was 107%.

The values above are taken from patent US11203571B2, “Sulfonamides as modulators of sodium channels” (VERTEX PHARMACEUTICALS INCORPORATED, priority 2013, dated 2021).
